What was measured:
Echinochloa crus-galli = assay: Foliar spray on potted weeds at two to three leaf stage in greenhouse, herbicidal effect (Example 101); format: in vivo, inubie (common barnyardgrass; Echinochloa crus-galli); conditions: one week after spray
Procedure: (§1) A plastic pot was filled with a commercially-available culture soil, and thereto inubie (common barnyardgrass; Echinochloa crus-galli) or akinoenokorogusa (giant foxtail; Setaria faberi) was seeded, and covered with the soil to about 0.5 cm, followed by growing the weeds in a greenhouse. When the weeds grew to two to three leaf stage, a spray liquid of the compound X, a spray liquid of pyroxasulfone, or a spray liquid of the present composition was uniformly sprayed to the whole plants so that the application rate might be a predetermined value. The spray liquid of the present composition was prepared by mixing the spray liquid of the compound X with the spray liquid of pyroxasulfone. The spray liquid of the compound X was prepared by mixing a predetermined amount of the formulation X with deionized water. The spray liquid of pyroxasulfone was prepared by dissolving pyroxasulfone with a 2 wt % solution of TWEEN® (polyoxyethylenesorbitan fatty acid ester, manufactured by MP Biomedicals) in dimethylformamide, followed by mixing with deionized water. After applying the spray liquid, the plants were placed in a greenhouse for a week. A herbicidal effect was evaluated by classifying the effect into 101 stages from 0 (no effect) to 100 (completely dead).
(§2) The expected value of the herbicidal effect in the case of mixed use was calculated from the result of the herbicidal effect in the case of single use of each of the compounds (the value of A or B) according to the formula of Colby ((expected value)=100−(100−A)×(100−B)/100).

Setaria faberi = assay: as above; format: in vivo, akinoenokorogusa (giant foxtail; Setaria faberi); conditions: one week after spray
Procedure: as §1, §2

[1] = Compound X 5 g/ha alone, scale 0 (no effect) to 100 (completely dead)
[2] = Compound X 10 g/ha alone, scale 0 to 100
[3] = pyroxasulfone 10 g/ha alone, scale 0 to 100
[4] = pyroxasulfone 100 g/ha alone, scale 0 to 100

Compound | Herbicidal effect on Echinochloa crus-galli (observed value) (Echinochloa crus-galli; [1]) | Herbicidal effect on Echinochloa crus-galli (observed value) (Echinochloa crus-galli; [2]) | Herbicidal effect on Setaria faberi (observed value) (Setaria faberi; [1]) | Herbicidal effect on Setaria faberi (observed value) (Setaria faberi; [2]) | Herbicidal effect on Echinochloa crus-galli (observed value) (Echinochloa crus-galli; [3]) | Herbicidal effect on Echinochloa crus-galli (observed value) (Echinochloa crus-galli; [4]) | Herbicidal effect on Setaria faberi (observed value) (Setaria faberi; [3]) | Herbicidal effect on Setaria faberi (observed value) (Setaria faberi; [4])
CCOC(=O)COc1ncccc1Oc1cc(-n2c(=O)cc(C(F)(F)F)n(C)c2=O)c(F)cc1Cl [Compound X, ethyl [3-[2-chloro-4-fluoro-5-(1-methyl-6-trifluoromethyl-2,4-dioxo-1,2,3,4-tetrahydropyrimidin-3-yl)phenoxy]-2-pyridyloxy]acetate] | 20 | 35 | 30 | 45 | – | – | – | –
Cn1nc(C(F)(F)F)c(CS(=O)(=O)C2=NOC(C)(C)C2)c1OC(F)F [pyroxasulfone] | – | – | – | – | 0 | 0 | 0 | 0
